# Experimental data: ChEMBL document CHEMBL3885861, “Open TG-GATES”
# Species on record: Rattus norvegicus
# Test: Open TG-GATES - Regimen: Daily Repeat
# Type: toxicity, organism-based, Sprague-Dawley
# Design: regimen Daily Repeat, gender Male, age 6 weeks
# Settings: in vivo, po, route gavage; for APTT / Bas / Eos / Fbg / Hb / Ht / Lym / MCH / MCHC / MCV / Mono / PT / Plat / RBC / Ret / WBC: tissue Blood; for KIDNEY_L / KIDNEY_R / KIDNEY_TOTAL: tissue Kidney; for ALP / ALT / AST / BUN / CRE / Ca / DBIL / GLC / IP / K / LDH / Na / PL / RALB / TBIL / TC / TG / TP / gamma-GTP: tissue Plasma
# [1] = 0 mg/kg, 72 h, dose level Control, time 3 day
# [2] = 0 mg/kg, […], dose level Control, time 7 day
# [3] = 0 mg/kg, […], dose level Control, time 14 day
# [4] = 0 mg/kg, […], dose level Control, time 28 day
# [5] = 20 mg/kg, 72 h, dose level Low, time 3 day
# [6] = 20 mg/kg, […], dose level Low, time 7 day
# [7] = 20 mg/kg, […], dose level Low, time 14 day
# [8] = 20 mg/kg, […], dose level Low, time 28 day
# [9] = 60 mg/kg, 72 h, dose level Middle, time 3 day
smiles,measurement,setting,value
CC(C)Cc1ccc(C(C)C(=O)O)cc1 (centres undefined) [IBUPROFEN],TERMINAL_BW,[1],222.9 g
same,APTT,[1],20.4 s
same,Bas,[1],0%
same,Eos,[1],1%
same,Fbg,[1],283.4 mg/dL
same,Hb,[1],13.2 g/dL
same,Ht,[1],38.4%
same,Lym,[1],79.8%
same,MCH,[1],22.3 pg
same,MCHC,[1],34.5%
same,MCV,[1],64.7 fL
same,Mono,[1],2.8%
same,PT,[1],15.5 s
same,Plat,[1],111.7 x10_4/uL
same,RBC,[1],593 x10_4/ul
same,Ret,[1],6.7%
same,WBC,[1],110.2 x10_2/uL
same,KIDNEY_L,[1],0.9 g
same,KIDNEY_R,[1],1 g
same,KIDNEY_TOTAL,[1],1.9 g
same,ALP,[1],1697.6 IU/L
same,ALT,[1],44.8 IU/L
same,AST,[1],76.6 IU/L
same,BUN,[1],17.2 mg/dL
same,CRE,[1],0.2 mg/dL
same,Ca,[1],11 mg/dL
same,DBIL,[1],0 mg/dL
same,GLC,[1],200 mg/dL
same,IP,[1],7.7 mg/dL
same,K,[1],4.1 meq/L
same,LDH,[1],208 IU/L
same,Na,[1],141.4 meq/L
same,PL,[1],143.6 mg/dL
same,RALB,[1],3 g/dL
same,TBIL,[1],0.006 mg/dL
same,TC,[1],77 mg/dL
same,TG,[1],84 mg/dL
same,TP,[1],5.5 g/dL
same,gamma-GTP,[1],1.2 IU/L
same,TERMINAL_BW,[2],270 g
same,TERMINAL_BW,[3],304.6 g
same,TERMINAL_BW,[4],398.5 g
same,APTT,[2],21.5 s
same,Bas,[2],0%
same,Eos,[2],0.8%
same,Fbg,[2],292.8 mg/dL
same,Hb,[2],13.1 g/dL
same,Ht,[2],37.3%
same,Lym,[2],80%
same,MCH,[2],21.6 pg
same,MCHC,[2],35%
same,MCV,[2],61.7 fL
same,Mono,[2],2.4%
same,PT,[2],16.1 s
same,Plat,[2],123.8 x10_4/uL
same,RBC,[2],604.6 x10_4/ul
same,Ret,[2],6.7%
same,WBC,[2],126 x10_2/uL
same,Bas,[3],0%
same,Eos,[3],0.6%
same,Fbg,[3],355.2 mg/dL
same,Ht,[3],41.1%
same,Lym,[3],83.8%
same,MCHC,[3],34.7%
same,MCV,[3],59.9 fL
same,Mono,[3],2%
same,PT,[3],16 s
same,Plat,[3],115.8 x10_4/uL
same,RBC,[3],686.2 x10_4/ul
same,Ret,[3],4.9%
same,WBC,[3],104.5 x10_2/uL
same,APTT,[4],21.9 s
same,Bas,[4],0%
same,Eos,[4],1.2%
same,Fbg,[4],340.2 mg/dL
same,Hb,[4],14.8 g/dL
same,Ht,[4],43%
same,Lym,[4],84.4%
same,MCH,[4],19.2 pg
same,MCHC,[4],34.4%
same,MCV,[4],55.9 fL
same,Mono,[4],2.2%
same,PT,[4],16.9 s
same,RBC,[4],768.2 x10_4/ul
same,Ret,[4],2.7%
same,KIDNEY_L,[2],1.1 g
same,KIDNEY_R,[2],1.2 g
same,KIDNEY_TOTAL,[2],2.3 g
same,KIDNEY_L,[3],1.2 g
same,KIDNEY_R,[3],1.2 g
same,KIDNEY_TOTAL,[3],2.4 g
same,KIDNEY_L,[4],1.3 g
same,KIDNEY_R,[4],1.4 g
same,KIDNEY_TOTAL,[4],2.7 g
same,ALP,[2],1943 IU/L
same,ALT,[2],46.8 IU/L
same,AST,[2],76.6 IU/L
same,BUN,[2],18.6 mg/dL
same,CRE,[2],0.2 mg/dL
same,DBIL,[2],0 mg/dL
same,GLC,[2],179.2 mg/dL
same,IP,[2],7.6 mg/dL
same,K,[2],4.2 meq/L
same,LDH,[2],170.2 IU/L
same,Na,[2],138.6 meq/L
same,PL,[2],136.2 mg/dL
same,RALB,[2],3.1 g/dL
same,TBIL,[2],0.004 mg/dL
same,TC,[2],71.2 mg/dL
same,TG,[2],100.8 mg/dL
same,TP,[2],5.5 g/dL
same,gamma-GTP,[2],2.6 IU/L
same,ALP,[3],1425.2 IU/L
same,ALT,[3],37.4 IU/L
same,AST,[3],65.8 IU/L
same,BUN,[3],19.2 mg/dL
same,CRE,[3],0.2 mg/dL
same,DBIL,[3],0 mg/dL
same,GLC,[3],200.4 mg/dL
same,IP,[3],7.7 mg/dL
same,K,[3],4.1 meq/L
same,LDH,[3],118.4 IU/L
same,Na,[3],140.6 meq/L
same,PL,[3],149 mg/dL
same,RALB,[3],3 g/dL
same,TBIL,[3],0.012 mg/dL
same,TC,[3],73.4 mg/dL
same,TP,[3],5.8 g/dL
same,gamma-GTP,[3],2.2 IU/L
same,ALP,[4],1191 IU/L
same,ALT,[4],35.2 IU/L
same,AST,[4],66.2 IU/L
same,CRE,[4],0.2 mg/dL
same,DBIL,[4],0 mg/dL
same,GLC,[4],196 mg/dL
same,IP,[4],6.3 mg/dL
same,K,[4],4.1 meq/L
same,LDH,[4],170.6 IU/L
same,Na,[4],140.8 meq/L
same,PL,[4],144.6 mg/dL
same,RALB,[4],3.2 g/dL
same,TBIL,[4],0.002 mg/dL
same,TC,[4],66.6 mg/dL
same,TG,[4],143.8 mg/dL
same,TP,[4],6.1 g/dL
same,gamma-GTP,[4],3 IU/L
same,TERMINAL_BW,[5],230.1 g
same,APTT,[5],21.4 s
same,Bas,[5],0%
same,Eos,[5],0.6%
same,Fbg,[5],301 mg/dL
same,Hb,[5],13.6 g/dL
same,Ht,[5],39.5%
same,Lym,[5],75.8%
same,MCH,[5],22 pg
same,MCHC,[5],34.3%
same,MCV,[5],64 fL
same,Mono,[5],3%
same,PT,[5],15.5 s
same,Plat,[5],120.5 x10_4/uL
same,RBC,[5],617.6 x10_4/ul
same,Ret,[5],6.7%
same,WBC,[5],117.5 x10_2/uL
same,KIDNEY_L,[5],1 g
same,KIDNEY_R,[5],1 g
same,KIDNEY_TOTAL,[5],2 g
same,ALP,[5],1847.8 IU/L
same,ALT,[5],42.8 IU/L
same,AST,[5],75 IU/L
same,BUN,[5],17.8 mg/dL
same,CRE,[5],0.2 mg/dL
same,Ca,[5],11 mg/dL
same,DBIL,[5],0 mg/dL
same,GLC,[5],182.8 mg/dL
same,IP,[5],7.4 mg/dL
same,K,[5],4.4 meq/L
same,LDH,[5],222 IU/L
same,Na,[5],141.4 meq/L
same,PL,[5],152.6 mg/dL
same,RALB,[5],3.1 g/dL
same,TBIL,[5],0.004 mg/dL
same,TC,[5],81.4 mg/dL
same,TG,[5],113.6 mg/dL
same,TP,[5],5.6 g/dL
same,gamma-GTP,[5],1.2 IU/L
same,TERMINAL_BW,[6],245.9 g
same,TERMINAL_BW,[7],307.6 g
same,TERMINAL_BW,[8],358.8 g
same,Bas,[6],0%
same,Eos,[6],1%
same,Fbg,[6],311 mg/dL
same,Hb,[6],13.6 g/dL
same,Ht,[6],39.4%
same,Lym,[6],75.6%
same,MCH,[6],21.4 pg
same,MCHC,[6],34.6%
same,MCV,[6],61.9 fL
same,Mono,[6],2.8%
same,PT,[6],15.9 s
same,Plat,[6],121 x10_4/uL
same,RBC,[6],638 x10_4/ul
same,Ret,[6],5.8%
same,APTT,[7],24 s
same,Bas,[7],0%
same,Eos,[7],0.8%
same,Fbg,[7],339.6 mg/dL
same,Ht,[7],41%
same,Lym,[7],80.4%
same,MCHC,[7],34.6%
same,MCV,[7],60.2 fL
same,Mono,[7],2.2%
same,PT,[7],15.8 s
same,Plat,[7],116.9 x10_4/uL
same,RBC,[7],682.4 x10_4/ul
same,Ret,[7],4.7%
same,WBC,[7],120.7 x10_2/uL
same,Bas,[8],0%
same,Eos,[8],1.2%
same,Fbg,[8],317.5 mg/dL
same,Hb,[8],14.8 g/dL
same,Ht,[8],43%
same,Lym,[8],78.5%
same,MCH,[8],19.2 pg
same,MCHC,[8],34.5%
same,MCV,[8],55.8 fL
same,Mono,[8],2.5%
same,Plat,[8],98.8 x10_4/uL
same,RBC,[8],771 x10_4/ul
same,Ret,[8],2.8%
same,WBC,[8],94.9 x10_2/uL
same,KIDNEY_L,[6],1.1 g
same,KIDNEY_R,[6],1.1 g
same,KIDNEY_TOTAL,[6],2.1 g
same,KIDNEY_L,[7],1.2 g
same,KIDNEY_R,[7],1.2 g
same,KIDNEY_TOTAL,[7],2.4 g
same,KIDNEY_L,[8],1.3 g
same,KIDNEY_R,[8],1.3 g
same,KIDNEY_TOTAL,[8],2.5 g
same,ALP,[6],1657.2 IU/L
same,ALT,[6],43.6 IU/L
same,AST,[6],73 IU/L
same,BUN,[6],18 mg/dL
same,CRE,[6],0.2 mg/dL
same,DBIL,[6],0 mg/dL
same,GLC,[6],183.4 mg/dL
same,IP,[6],6.8 mg/dL
same,K,[6],4.1 meq/L
same,LDH,[6],167.2 IU/L
same,Na,[6],139.8 meq/L
same,PL,[6],150.8 mg/dL
same,RALB,[6],3 g/dL
same,TBIL,[6],0.004 mg/dL
same,TC,[6],71.6 mg/dL
same,TG,[6],128.2 mg/dL
same,TP,[6],5.6 g/dL
same,gamma-GTP,[6],2.2 IU/L
same,ALP,[7],1385.4 IU/L
same,ALT,[7],45 IU/L
same,AST,[7],73.4 IU/L
same,CRE,[7],0.2 mg/dL
same,DBIL,[7],0 mg/dL
same,GLC,[7],197.2 mg/dL
same,IP,[7],7.2 mg/dL
same,K,[7],3.9 meq/L
same,LDH,[7],129.4 IU/L
same,Na,[7],141.8 meq/L
same,PL,[7],150 mg/dL
same,RALB,[7],3.1 g/dL
same,TBIL,[7],0.006 mg/dL
same,TC,[7],75.4 mg/dL
same,TG,[7],122.6 mg/dL
same,TP,[7],5.7 g/dL
same,gamma-GTP,[7],2.4 IU/L
same,ALP,[8],1303 IU/L
same,ALT,[8],38.8 IU/L
same,AST,[8],67.5 IU/L
same,CRE,[8],0.2 mg/dL
same,DBIL,[8],0 mg/dL
same,GLC,[8],196 mg/dL
same,IP,[8],5.6 mg/dL
same,K,[8],3.7 meq/L
same,LDH,[8],181.8 IU/L
same,Na,[8],142.5 meq/L
same,PL,[8],149.8 mg/dL
same,RALB,[8],3.3 g/dL
same,TBIL,[8],0.005 mg/dL
same,TC,[8],72.5 mg/dL
same,TG,[8],129.5 mg/dL
same,TP,[8],6.1 g/dL
same,gamma-GTP,[8],2.8 IU/L
same,TERMINAL_BW,[9],227 g
same,APTT,[9],20.5 s
same,Bas,[9],0%
